Test results as given in ChEMBL document CHEMBL1201862, “PubChem BioAssay data set” (2004).
Where a name gives a salt, the structure may show the parent alone. Calls of active or inactive are those of the source.

What was measured:
[1] = target: DNA dC->dU-editing enzyme APOBEC-3A (Homo sapiens, UniProt P31941); experiment: Dose Response confirmation of small molecule APOBEC3A DNA Deaminase Inhibitors via a fluorescence-based single-stranded DNA deaminase assay. [Related pubchem assays (depositor defined):AID493011, AID493024]; format: functional
Chain of DNA dC->dU-editing enzyme APOBEC-3A (P31941 whole entry): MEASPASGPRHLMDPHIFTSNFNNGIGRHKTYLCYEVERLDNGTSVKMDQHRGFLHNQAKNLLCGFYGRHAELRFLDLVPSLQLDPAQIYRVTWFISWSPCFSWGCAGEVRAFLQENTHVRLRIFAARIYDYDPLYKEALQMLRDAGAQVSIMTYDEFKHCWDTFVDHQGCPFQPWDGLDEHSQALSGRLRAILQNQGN

[2] = target: T1, Ubiquitin-conjugating enzyme E2 N (Homo sapiens, UniProt P61088); format: functional;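 note: Dose-response confirmation in a TR-FRET assay detecting UBC13-driven polyubiquitin chain formation, inhibition measured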
T1 sequence (P61088 whole entry): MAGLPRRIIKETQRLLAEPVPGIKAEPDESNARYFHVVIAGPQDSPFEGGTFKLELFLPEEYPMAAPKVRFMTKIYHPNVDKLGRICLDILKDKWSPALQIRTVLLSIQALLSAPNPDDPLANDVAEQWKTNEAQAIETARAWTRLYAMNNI

[3] = target: DNA dC->dU-editing enzyme APOBEC-3G (Homo sapiens, UniProt Q9HC16); format: functional;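 note: Dose-response counterscreen measuring inhibition of APOBEC3G DNA deaminase activity, run while confirming APOBEC3A inhibitors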
Chain of DNA dC->dU-editing enzyme APOBEC-3G (Q9HC16 whole entry): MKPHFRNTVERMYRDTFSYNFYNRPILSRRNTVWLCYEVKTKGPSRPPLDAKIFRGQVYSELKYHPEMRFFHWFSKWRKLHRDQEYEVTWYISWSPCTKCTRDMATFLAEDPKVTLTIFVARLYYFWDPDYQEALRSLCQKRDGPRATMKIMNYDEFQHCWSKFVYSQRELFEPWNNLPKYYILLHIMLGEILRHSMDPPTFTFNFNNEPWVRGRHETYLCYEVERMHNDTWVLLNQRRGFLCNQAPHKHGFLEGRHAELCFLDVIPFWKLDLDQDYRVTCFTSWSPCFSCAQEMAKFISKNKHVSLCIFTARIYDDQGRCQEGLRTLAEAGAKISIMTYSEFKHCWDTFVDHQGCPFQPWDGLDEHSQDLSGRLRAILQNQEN

[4] = target: T2, Microphthalmia-associated transcription factor (Homo sapiens, UniProt O75030); experiment: TRPM1 promoter luciferase signal decrease, dose response, MITF inhibitor project, cell-based, SK-MEL-5, cherry-picked, set 3 (AID 493073); format: functional
T2 sequence (O75030 whole entry): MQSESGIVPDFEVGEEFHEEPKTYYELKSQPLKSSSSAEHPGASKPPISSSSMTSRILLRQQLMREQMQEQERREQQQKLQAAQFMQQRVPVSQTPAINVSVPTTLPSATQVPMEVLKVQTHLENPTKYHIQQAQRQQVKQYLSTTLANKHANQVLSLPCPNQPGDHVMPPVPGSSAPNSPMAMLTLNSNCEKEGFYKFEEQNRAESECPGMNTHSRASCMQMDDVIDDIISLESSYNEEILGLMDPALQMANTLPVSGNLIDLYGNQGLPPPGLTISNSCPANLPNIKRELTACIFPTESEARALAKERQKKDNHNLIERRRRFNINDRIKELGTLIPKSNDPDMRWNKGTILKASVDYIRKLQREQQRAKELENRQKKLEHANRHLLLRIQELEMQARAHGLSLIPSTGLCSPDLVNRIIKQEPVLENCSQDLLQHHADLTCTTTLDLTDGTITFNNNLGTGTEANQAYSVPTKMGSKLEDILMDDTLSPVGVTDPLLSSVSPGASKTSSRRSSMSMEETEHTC

A-375 [5] = experiment: MITF: Counter assay: A375 proliferation Measured in Cell-Based System Using Plate Reader - 2084-03_Inhibitor_Dose_DryPowder_Activity. [Related pubchem assays (depositor defined):AID488944]; format: functional; details: Homo sapiens
A-375 [6] = experiment: A375 melanoma cell viability reduction, dose response, counter-screen for MITF modulator project, cherry-pick samples, set 2 (AID 540335); format: functional, cell-based; details: Homo sapiens
INS1 = experiment: beta cell apoptosis inhibitors, cytokine rescue, dose response, luminescence, retest (AID 449756); format: functional, cell-based; details: Rattus norvegicus;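 note: cell death triggered by IL-1 beta plus TNF-alpha plus IFN-gamma mixture; protective hits raise ATP signal compared with cytokine alone wells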
Beta-galactosidase = Beta-galactosidase (Escherichia coli, UniProt Q8VNN2); experiment: beta-galactosidase enzyme inhibitors and activators, dose response, artefact control for CCR6 antagonist project, biochemical, E. coli enzyme, set 3 (AID 504712); format: functional
Chain of Beta-galactosidase (Q8VNN2 whole entry): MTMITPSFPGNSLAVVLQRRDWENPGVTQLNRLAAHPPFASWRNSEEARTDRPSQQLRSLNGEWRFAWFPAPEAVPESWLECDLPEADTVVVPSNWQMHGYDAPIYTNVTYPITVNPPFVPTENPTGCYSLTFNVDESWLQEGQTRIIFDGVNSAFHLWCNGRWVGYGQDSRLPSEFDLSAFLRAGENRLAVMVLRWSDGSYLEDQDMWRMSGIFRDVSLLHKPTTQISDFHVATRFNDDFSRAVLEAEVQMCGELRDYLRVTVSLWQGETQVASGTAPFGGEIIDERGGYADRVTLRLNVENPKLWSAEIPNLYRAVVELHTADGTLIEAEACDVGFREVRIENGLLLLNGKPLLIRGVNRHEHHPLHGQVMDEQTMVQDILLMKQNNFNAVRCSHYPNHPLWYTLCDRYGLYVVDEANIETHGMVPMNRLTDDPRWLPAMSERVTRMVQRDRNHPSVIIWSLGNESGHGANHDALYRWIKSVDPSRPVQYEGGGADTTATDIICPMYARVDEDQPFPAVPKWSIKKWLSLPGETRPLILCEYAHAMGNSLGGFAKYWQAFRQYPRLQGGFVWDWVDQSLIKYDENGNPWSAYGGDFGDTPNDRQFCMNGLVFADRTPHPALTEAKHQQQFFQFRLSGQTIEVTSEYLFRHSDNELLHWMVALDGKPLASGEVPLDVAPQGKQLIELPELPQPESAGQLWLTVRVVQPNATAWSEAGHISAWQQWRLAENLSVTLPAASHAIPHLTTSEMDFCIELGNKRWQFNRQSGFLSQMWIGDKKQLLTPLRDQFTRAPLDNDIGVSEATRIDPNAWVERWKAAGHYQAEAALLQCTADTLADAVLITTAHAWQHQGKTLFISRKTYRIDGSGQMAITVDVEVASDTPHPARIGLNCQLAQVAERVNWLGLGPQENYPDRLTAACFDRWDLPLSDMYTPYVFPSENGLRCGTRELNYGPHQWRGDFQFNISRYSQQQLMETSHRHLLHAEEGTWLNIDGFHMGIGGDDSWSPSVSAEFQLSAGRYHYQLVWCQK

[7] = target: T3, Polyadenylate-binding protein 1 (Homo sapiens, UniProt P11940); experiment: PABP1 MLLE–PAM2 interaction inhibitors, dose response, miRNA deadenylation inhibitor project, biochemical, fluorescence polarization, Cy5-PAM2 peptide, secondary (AID 602260); format: functional; details: read-out: IC50_Mean
T3 sequence (P11940 whole entry): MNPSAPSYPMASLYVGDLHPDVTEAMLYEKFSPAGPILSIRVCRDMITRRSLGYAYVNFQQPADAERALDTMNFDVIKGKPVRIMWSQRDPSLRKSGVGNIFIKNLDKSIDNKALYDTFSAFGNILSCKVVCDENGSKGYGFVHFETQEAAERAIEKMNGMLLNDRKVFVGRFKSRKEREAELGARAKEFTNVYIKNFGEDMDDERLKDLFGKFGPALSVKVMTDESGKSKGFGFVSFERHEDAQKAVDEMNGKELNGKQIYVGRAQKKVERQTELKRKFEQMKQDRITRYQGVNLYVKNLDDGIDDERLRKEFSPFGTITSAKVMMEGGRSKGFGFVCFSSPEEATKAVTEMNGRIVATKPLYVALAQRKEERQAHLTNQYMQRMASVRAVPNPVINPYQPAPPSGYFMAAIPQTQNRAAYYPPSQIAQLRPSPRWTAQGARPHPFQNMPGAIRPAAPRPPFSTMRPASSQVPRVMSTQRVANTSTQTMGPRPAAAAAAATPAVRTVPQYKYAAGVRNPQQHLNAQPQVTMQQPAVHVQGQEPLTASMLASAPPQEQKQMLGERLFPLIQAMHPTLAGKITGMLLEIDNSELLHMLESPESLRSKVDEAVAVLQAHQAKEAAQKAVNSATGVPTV

[8] = target: T3, Polyadenylate-binding protein 1; experiment: PABP1 MLLE–PAM2 binding inhibitor potency, dose response, biochemical, fluorescence polarization, FITC-PAM2 peptide (AID 602259); format: functional; details: read-out: IC50_Mean
Cytochrome P450 2C9 = Cytochrome P450 2C9 (Homo sapiens, UniProt P11712)
Chain of Cytochrome P450 2C9 (P11712 whole entry): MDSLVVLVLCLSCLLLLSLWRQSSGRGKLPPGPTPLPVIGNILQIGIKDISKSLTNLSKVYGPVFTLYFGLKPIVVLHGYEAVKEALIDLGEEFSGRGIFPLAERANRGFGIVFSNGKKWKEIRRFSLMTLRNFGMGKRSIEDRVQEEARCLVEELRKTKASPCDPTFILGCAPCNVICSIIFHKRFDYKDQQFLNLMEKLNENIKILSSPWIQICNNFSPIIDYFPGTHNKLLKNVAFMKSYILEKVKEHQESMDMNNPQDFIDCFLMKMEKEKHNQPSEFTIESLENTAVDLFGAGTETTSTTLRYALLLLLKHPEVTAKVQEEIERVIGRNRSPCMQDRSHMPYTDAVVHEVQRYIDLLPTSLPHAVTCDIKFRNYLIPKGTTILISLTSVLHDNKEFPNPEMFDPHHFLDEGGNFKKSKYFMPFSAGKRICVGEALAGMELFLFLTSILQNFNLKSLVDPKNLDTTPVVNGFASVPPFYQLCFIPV

[9] = Luminescence Cell-Based Dose Confirmation HTS to Identify Activators of 5'UTR Stem-Loop Driven Alpha-Synuclein mRNA Translation in H4 Neuroglioblastoma Cells. [Related pubchem assays: 1829 (Project Summary), 1814 (Primary HTS)]; format: functional
[10] = Luminescence Cell-Based Dose Response HTS to Identify Activators of Luciferase Translation or Activity in H4 […] Cells. [Related pubchem assays: 1829 (Project Summary), 1814 (Primary HTS)]; format: functional
cells [11] = format: functional, cell-based
H4 = experiment: Luminescence Cell-Based Dose Response HTS to Identify Activators of 5'UTR Stem-Loop Driven Prion Protein mRNA Translation in H4 Neuroglioblastoma Cells. [Related pubchem assays: 1829 (Project Summary), 1814 (Primary HTS)]; format: functional; details: Homo sapiens
cells [12] = format: functional, cell-based; remark: listed apart in the source
HEK293 = experiment: cells; format: functional, cell-based; details: Homo sapiens
[13] = target: T4, Nuclear receptor subfamily 0 group B member 1 (Homo sapiens, UniProt P51843); experiment: Luminescence-based cell-based high throughput dose response assay for inhibitors of the orphan nuclear receptor subfamily 0, group B, member 1 (DAX1; NR0B1). [Related pubchem assays (depositor defined):AID504766, AID504790]; format: functional
T4 sequence (P51843 whole entry): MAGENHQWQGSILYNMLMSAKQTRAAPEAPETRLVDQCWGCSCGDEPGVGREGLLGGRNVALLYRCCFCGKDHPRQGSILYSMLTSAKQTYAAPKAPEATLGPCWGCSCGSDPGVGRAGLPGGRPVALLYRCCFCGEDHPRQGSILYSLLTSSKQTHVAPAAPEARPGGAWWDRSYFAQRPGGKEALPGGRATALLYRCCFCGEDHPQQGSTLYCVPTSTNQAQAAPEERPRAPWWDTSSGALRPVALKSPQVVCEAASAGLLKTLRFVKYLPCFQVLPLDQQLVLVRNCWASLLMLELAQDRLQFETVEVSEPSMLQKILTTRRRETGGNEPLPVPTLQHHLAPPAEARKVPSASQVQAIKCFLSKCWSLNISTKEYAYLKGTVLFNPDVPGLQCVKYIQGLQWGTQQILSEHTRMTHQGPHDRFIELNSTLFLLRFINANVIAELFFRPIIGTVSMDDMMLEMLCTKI

[14] = HepG2 cell cytotoxicity, dose response, cytotoxicity control, ATP luminescence, cherry-pick, activator set 2 (AID 1053143); format: functional, cell-based
[15] = target: T5, Oxysterols receptor LXR-beta (Homo sapiens, UniProt P55055); format: functional, cell-based;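 note: agonist activity at LXR measured by a cell-based luminescence readout across a dose range, run as a counterscreen for daf-12 agonists; HEK293 cells with Gal4-LXR fusion and GAL4-driven luciferase reporter; potency for activation of Gal4-LXR reporter so compounds are agonists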
T5 sequence (P55055 whole entry): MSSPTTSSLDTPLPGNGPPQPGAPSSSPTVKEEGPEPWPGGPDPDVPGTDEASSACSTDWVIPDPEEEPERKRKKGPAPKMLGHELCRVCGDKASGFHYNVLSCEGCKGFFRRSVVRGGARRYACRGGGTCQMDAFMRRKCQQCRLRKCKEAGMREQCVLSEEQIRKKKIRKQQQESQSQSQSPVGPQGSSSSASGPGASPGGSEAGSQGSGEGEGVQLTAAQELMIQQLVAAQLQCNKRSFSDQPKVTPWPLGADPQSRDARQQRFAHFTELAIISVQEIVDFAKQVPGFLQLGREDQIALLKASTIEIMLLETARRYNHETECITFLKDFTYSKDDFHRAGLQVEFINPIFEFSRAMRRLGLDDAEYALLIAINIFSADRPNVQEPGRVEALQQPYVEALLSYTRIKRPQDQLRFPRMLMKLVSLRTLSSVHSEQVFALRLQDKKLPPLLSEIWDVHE

[16] = target: Voltage-gated inwardly rectifying potassium channel KCNH2 (Homo sapiens, UniProt Q12809); details: Potency;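 note: confirmatory quantitative high-throughput screen measuring inhibition of hERG channel activity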
Chain of Voltage-gated inwardly rectifying potassium channel KCNH2 (Q12809 whole entry): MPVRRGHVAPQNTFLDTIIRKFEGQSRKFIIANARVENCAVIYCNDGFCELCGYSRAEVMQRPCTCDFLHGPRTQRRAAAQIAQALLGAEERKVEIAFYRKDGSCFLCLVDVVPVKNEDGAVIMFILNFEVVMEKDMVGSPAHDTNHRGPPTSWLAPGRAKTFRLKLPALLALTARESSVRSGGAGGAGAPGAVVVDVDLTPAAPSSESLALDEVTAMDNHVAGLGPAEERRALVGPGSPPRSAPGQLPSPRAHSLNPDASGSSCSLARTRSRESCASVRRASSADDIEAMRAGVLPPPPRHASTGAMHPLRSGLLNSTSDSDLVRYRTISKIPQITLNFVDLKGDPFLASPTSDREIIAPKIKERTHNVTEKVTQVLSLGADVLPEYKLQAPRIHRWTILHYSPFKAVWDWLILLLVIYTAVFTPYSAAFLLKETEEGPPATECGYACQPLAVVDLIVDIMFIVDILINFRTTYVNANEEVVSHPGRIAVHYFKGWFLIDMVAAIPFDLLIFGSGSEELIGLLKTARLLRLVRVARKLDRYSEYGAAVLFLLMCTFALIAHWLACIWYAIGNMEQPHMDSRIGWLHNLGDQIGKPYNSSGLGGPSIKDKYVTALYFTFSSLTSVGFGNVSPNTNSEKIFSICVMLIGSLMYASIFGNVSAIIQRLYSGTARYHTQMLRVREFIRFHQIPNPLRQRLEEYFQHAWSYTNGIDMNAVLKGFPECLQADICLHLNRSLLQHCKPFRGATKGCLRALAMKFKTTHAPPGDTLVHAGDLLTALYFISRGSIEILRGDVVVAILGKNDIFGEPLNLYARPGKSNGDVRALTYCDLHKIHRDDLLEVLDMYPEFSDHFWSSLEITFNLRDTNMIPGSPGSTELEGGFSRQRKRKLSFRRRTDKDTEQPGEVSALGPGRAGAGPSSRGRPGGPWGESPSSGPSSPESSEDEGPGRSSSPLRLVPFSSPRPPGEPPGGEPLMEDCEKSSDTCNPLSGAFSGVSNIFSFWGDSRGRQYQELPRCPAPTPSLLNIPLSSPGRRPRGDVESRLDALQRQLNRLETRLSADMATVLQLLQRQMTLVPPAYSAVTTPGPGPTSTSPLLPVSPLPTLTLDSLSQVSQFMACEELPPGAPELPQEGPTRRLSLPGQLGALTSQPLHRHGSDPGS

In the case of `COC(=O)C1=C(C)N(Cc2ccccc2)C(NCCc2cccnc2)=N[C@H]1c1ccc(Br)cc1`, the IC50 [1] is reported as 3.04 µM (active), the IC50 [2] is reported as > 20 µM (inactive) and the IC50 [3] is reported as 4.68 µM (active). The AC50 [4] was 17.8 µM (active), the AC50 (A-375 [5]) was > 11 µM (active) and the AC50 (A-375 [6]) was > 11 µM (active).
With `CC(C)Oc1ccc(C(CCN)C2CCCCC2)cc1` (stereo unspecified) the AC50 [4] was 9.99 µM (active), the AC50 (A-375 [5]) was 17.7 µM (active) and the AC50 (INS1) was 7.47 µM (active).
In the case of `O=C1NC(=S)NC(=O)C1=Cc1cccc2cc3ccccc3cc12`, the IC50 (Beta-galactosidase) is reported as > 66.6 µM (inactive), the AC50 [4] is reported as 4.81 µM (active) and the AC50 (A-375 [5]) is reported as > 35 µM (active). The AC50 (A-375 [6]) was > 35 µM (active), the IC50 [7] was > 66 µM (inactive) and the IC50 [8] was > 66 µM (inactive). For the same compound, the AC50 (Cytochrome P450 2C9) was 3.16 µM (inconclusive).
For `O=C(Nc1ccccc1O)c1ccc(NS(=O)(=O)c2cccc3cccnc23)cc1`, the EC50 [9] was 11.2 µM (active), the EC50 [10] was 10.7 µM (active) and the EC50 (cells [11]) was 8.05 µM (active). The EC50 (H4) was 34 µM (active), the EC50 (cells [12]) was > 350 µM (not active) and the IC50 (HEK293) was 0.695 µM (active). The IC50 [13] was > 67.5 µM (inactive), the AC50 [14] was 9.01 µM (active) and the EC50 [15] was > 67.5 µM (inactive).
With `CCOC(=O)N1CCN(C(=O)COc2cc(=O)n(CC)c3ccccc23)CC1` the IC50 (HEK293) was > 67.5 µM (inactive) and the IC50 [13] was > 67.5 µM (inactive).
With `COc1ccc(CC(=O)NC2CCSc3ccccc32)c(OC)c1` (stereo unspecified) the IC50 (HEK293) was > 67.6 µM (inactive) and the IC50 [13] was > 67.6 µM (inactive).
In the case of `COC[C@H]1OC(=O)c2coc3c2[C@@]1(C)C1=C(C3=O)C2CCC(=O)[C@@]2(C)C[C@H]1OC(C)=O` (stereo partly specified), the AC50 [16] is reported as 17.8 µM (inconclusive).
In the case of `C#CCOC(=O)C1=CCCN(C)C1` [ARECAIDINE PROPARGYL ESTER HYDROBROMIDE], the AC50 [16] is reported as 35.5 µM (inconclusive).
